ChEMBL document CHEMBL1156904, “Part II: piperazinyl-glutamate-pyridines as potent orally bioavailable P2Y12 antagonists for inhibition of platelet aggregation” (Bioorg Med Chem Lett, 2010)

Columns and labels:
P2Y purinoceptor 12 = P2Y purinoceptor 12 (Homo sapiens, UniProt Q9H244); test: Inhibition of human P2Y12 receptor expressed in CHO cells
[1] = Metabolic stability in rat microsomes; format: ADME, Microsome
[2] = Antiplatelet activity in human platelet rich plasma assessed as inhibition of ADP-induced platelet aggregation relative to AZD-6140; format: functional
[3] = Metabolic stability in human microsomes; format: ADME, Microsome
[4] = Antiplatelet activity in human platelet rich plasma assessed as inhibition of ADP-induced platelet aggregation; format: functional

P2Y purinoceptor 12, sequence (Q9H244 whole entry): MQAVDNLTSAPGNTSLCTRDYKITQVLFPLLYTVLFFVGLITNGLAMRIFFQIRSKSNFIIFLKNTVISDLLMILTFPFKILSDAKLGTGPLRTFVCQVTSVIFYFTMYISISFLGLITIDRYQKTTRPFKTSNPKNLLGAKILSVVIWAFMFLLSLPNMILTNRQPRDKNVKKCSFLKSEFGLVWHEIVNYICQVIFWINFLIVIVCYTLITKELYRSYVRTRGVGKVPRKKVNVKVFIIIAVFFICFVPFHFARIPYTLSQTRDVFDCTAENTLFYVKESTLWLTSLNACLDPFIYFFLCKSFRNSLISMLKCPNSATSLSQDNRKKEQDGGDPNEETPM

| Structure (SMILES) | Ki (P2Y purinoceptor 12) [nM] | Stability [1] | Stability [3] | IC50 [4] [nM] | fold change (FC) [2] |
| --- | --- | --- | --- | --- | --- |
| CCCCCOC(=O)N1CCN(C(=O)[C@H](CCC(=O)O)NC(=O)c2cc(N3CCC(CN4CCCC4)CC3)cc(-c3ccccc3)n2)CC1 | 1.1 | Stable | Stable | 740 | 0.93 |
| CCCCCOC(=O)N1CCN(C(=O)[C@H](CCC(=O)O)NC(=O)c2cc(N3CC[C@@H](C(=O)N4CCCC4)C3)cc(-c3ccccc3)n2)CC1 | 1.4 | Stable | Stable | 2200 | 1.7 |
| CCCCCOC(=O)N1CCN(C(=O)[C@H](CCC(=O)O)NC(=O)c2cc(N3CCNCC3)cc(-c3ccccc3)n2)CC1 | 6.5 | Stable | Stable | 1900 | 2.3 |
| CCCCCOC(=O)N1CCN(C(=O)[C@H](CCC(=O)O)NC(=O)c2cc(N3CC(C(N)=O)C3)cc(-c3ccccc3)n2)CC1 | 0.64 | Stable | Stable | 1900 |  |
| CCCCCOC(=O)N1CCN(C(=O)[C@H](CCC(=O)O)NC(=O)c2cc(N3CC[C@@H](C(=O)N(CC)CC)C3)cc(-c3ccccc3)n2)CC1 | 2.6 | Stable | Stable | 6600 | 5 |
| CCCCCOC(=O)N1CCN(C(=O)[C@H](CCC(=O)O)NC(=O)c2cc(N3CCN(CCN(C)C)CC3)cc(-c3ccccc3)n2)CC1 | 8.5 | Stable | Stable | 510 | 0.7 |
| CCCCCOC(=O)N1CCN(C(=O)[C@H](CCC(=O)O)NC(=O)c2cc(N3CCCC(CNC(C)=O)C3)cc(-c3ccccc3)n2)CC1 (some centres undefined) | 9.9 | Stable | Stable | 2900 | 3.4 |
| CCCCCOC(=O)N1CCN(C(=O)[C@H](CCC(=O)O)NC(=O)c2cc(N3CCCC(C(N)=O)C3)cc(-c3ccccc3)n2)CC1 (some centres undefined) | 17 | Stable | Stable | 7800 | 7.3 |
| CCCCCOC(=O)N1CCN(C(=O)[C@H](CCC(=O)O)NC(=O)c2cc(N3CCCC(N4CCCC4)C3)cc(-c3ccccc3)n2)CC1 (some centres undefined) | 11 | Stable | Stable | 3300 | 3.3 |
| CCCCCOC(=O)N1CCN(C(=O)C(CCC(=O)O)NC(=O)c2cc(N3CCC(O)C3)cc(-c3ccccc3)n2)CC1 (mixture of isomers) | 13 | Stable | Stable | 7100 | 3.9 |
| CCCCCOC(=O)N1CCN(C(=O)[C@H](CCC(=O)O)NC(=O)c2cc(N3CC(N4CCOCC4)C3)cc(-c3ccccc3)n2)CC1 | 3.3 | Stable | Stable | 1400 |  |
| CCCCCOC(=O)N1CCN(C(=O)[C@H](CCC(=O)O)NC(=O)c2cc(N3CCCC(OC)C3)cc(-c3ccccc3)n2)CC1 (some centres undefined) | 31 | Stable | Stable | 5200 | 6.3 |
| CCCCCOC(=O)N1CCN(C(=O)[C@H](CCC(=O)O)NC(=O)c2cc(N3CCC(C(=O)N(C)C)CC3)cc(-c3ccccc3)n2)CC1 | 0.98 | Stable | Stable | 600 | 0.72 |
| CCCCCOC(=O)N1CCN(C(=O)C(CCC(=O)O)NC(=O)c2cc(N3CCC(CO)C3)cc(-c3ccccc3)n2)CC1 (mixture of isomers) | 21 | Stable | Stable | 29000 | 11 |
| CCCCCOC(=O)N1CCN(C(=O)[C@H](CCC(=O)O)NC(=O)c2cc(N3CC(C(=O)NC)C3)cc(-c3ccccc3)n2)CC1 | 1.7 | Stable | Stable | 2000 |  |
| CCCCCOC(=O)N1CCN(C(=O)[C@H](CCC(=O)O)NC(=O)c2cc(N3CCN(CCOC)CC3)cc(-c3ccccc3)n2)CC1 | 8.3 | Stable | Stable | 1100 | 2.1 |
| CCCCOC(=O)N1CCN(C(=O)[C@H](CCC(=O)O)NC(=O)c2cc(N3CCC(CNCC)CC3)cc(-c3ccccc3)n2)CC1 | 3.8 | Stable | Stable | 1300 | 1.4 |
| CCCCCOC(=O)N1CCN(C(=O)[C@H](CCC(=O)O)NC(=O)c2cc(N3CCC(CNCC)CC3)cc(-c3ccccc3)n2)CC1 | 1.5 | Stable | Stable | 950 | 1.2 |
| CCCCCOC(=O)N1CCN(C(=O)[C@H](CCC(=O)O)NC(=O)c2cc(N3CCN(CCO)CC3)cc(-c3ccccc3)n2)CC1 | 13 | Stable | Stable | 1800 | 1.1 |
| CCCCCOC(=O)N1CCN(C(=O)[C@H](CCC(=O)O)NC(=O)c2cc(N3CCC(CCN)CC3)cc(-c3ccccc3)n2)CC1 | 2.8 | Stable | Stable | 860 | 0.66 |
| CCCCCOC(=O)N1CCN(C(=O)[C@H](CCC(=O)O)NC(=O)c2cc(N3CCC[C@H](O)C3)cc(-c3ccccc3)n2)CC1 | 18 | Stable | Stable | 2400 | 3.7 |
| CCCCCOC(=O)N1CCN(C(=O)[C@H](CCC(=O)O)NC(=O)c2cc(N3CCCC(N)C3)cc(-c3ccccc3)n2)CC1 (some centres undefined) | 5.5 | Stable | Stable | 1800 | 2.2 |
| CCCCCOC(=O)N1CCN(C(=O)[C@H](CCC(=O)O)NC(=O)c2cc(N3CC(N(C)C)C3)cc(-c3ccccc3)n2)CC1 | 5.5 | Stable | Stable | 2700 |  |

More lines, in order of falling Ki (P2Y purinoceptor 12), values ahead:

| Ki (P2Y purinoceptor 12) [nM] | Stability [1] | Stability [3] | IC50 [4] [nM] | Structure (SMILES) | fold change (FC) [2] |
| --- | --- | --- | --- | --- | --- |
| 29 | Stable | Stable | 5000 | CCCCCOC(=O)N1CCN(C(=O)[C@H](CCC(=O)O)NC(=O)c2cc(N3CCN(CCC)CC3)cc(-c3ccccc3)n2)CC1 | 6.3 |
| 26 | Stable | Stable | 3000 | CCCCCOC(=O)N1CCN(C(=O)[C@H](CCC(=O)O)NC(=O)c2cc(N3CC[C@H](C(=O)N(C)C)C3)cc(-c3ccccc3)n2)CC1 | 4.1 |
| 22 | Stable | Stable | 11000 | CCCCCOC(=O)N1CCN(C(=O)[C@H](CCC(=O)O)NC(=O)c2cc(N3CCCC(COC)C3)cc(-c3ccccc3)n2)CC1 (some centres undefined) |  |
| 16 | Stable | Stable | 4400 | CCCCCOC(=O)N1CCN(C(=O)[C@H](CCC(=O)O)NC(=O)c2cc(N3CCC[C@@H](O)C3)cc(-c3ccccc3)n2)CC1 | 4.9 |
| 12 | Stable | Stable | 2000 | CCCOC(=O)N1CCN(C(=O)[C@H](CCC(=O)O)NC(=O)c2cc(N3CCC(C(=O)N(CC)CC)CC3)cc(-c3ccccc3)n2)CC1 | 2.3 |
| 8.4 | Stable | Stable | 520 | CCCCCOC(=O)N1CCN(C(=O)[C@H](CCC(=O)O)NC(=O)c2cc(N3CCN(CCCN(C)C)CC3)cc(-c3ccccc3)n2)CC1 | 0.72 |
| 5.9 | Stable | Stable | 2900 | CCCCCOC(=O)N1CCN(C(=O)[C@H](CCC(=O)O)NC(=O)c2cc(N3CCN(CC(=O)N(CC)CC)CC3)cc(-c3ccccc3)n2)CC1 | 3.2 |
| 5.2 | Stable | Stable | 1600 | CCCCCOC(=O)N1CCN(C(=O)[C@H](CCC(=O)O)NC(=O)c2cc(N3CCN(CC(=O)N4CCCC4)CC3)cc(-c3ccccc3)n2)CC1 | 2.2 |
| 4.9 | Stable | Stable | 690 | CCCCCOC(=O)N1CCN(C(=O)[C@H](CCC(=O)O)NC(=O)c2cc(N3CCN(CC(=O)N(C)C)CC3)cc(-c3ccccc3)n2)CC1 | 1.1 |
| 4.8 | Stable | Stable | 820 | CCCCCCOC(=O)N1CCN(C(=O)[C@H](CCC(=O)O)NC(=O)c2cc(N3CCC(C(=O)N(CC)CC)CC3)cc(-c3ccccc3)n2)CC1 | 1.7 |
| 2.6 | Stable | Stable | 630 | CCCCOC(=O)N1CCN(C(=O)[C@H](CCC(=O)O)NC(=O)c2cc(N3CCC(C(=O)N(C)C)CC3)cc(-c3ccccc3)n2)CC1 | 0.53 |
| 2.5 | Stable | Stable | 8600 | CCCCCOC(=O)N1CCN(C(=O)[C@H](CCC(=O)O)NC(=O)c2cc(N3CC(O)C3)cc(-c3ccccc3)n2)CC1 | 9.2 |
| 2 | Stable | Stable | > 10000 | CCCCCOC(=O)N1CCN(C(=O)[C@H](CCC(=O)O)NC(=O)c2cc(N3CC(OC)C3)cc(-c3ccccc3)n2)CC1 |  |
| 1.9 | Stable | Stable | 1000 | CCCCCOC(=O)N1CCN(C(=O)[C@H](CCC(=O)O)NC(=O)c2cc(N3CCC(CN(C)C)CC3)cc(-c3ccccc3)n2)CC1 | 1.3 |
| 0.68 | Stable | Stable | 1200 | CCCCOC(=O)N1CCN(C(=O)[C@H](CCC(=O)O)NC(=O)c2cc(N3CCC(C(=O)NCC)CC3)cc(-c3ccccc3)n2)CC1 | 0.9 |
